Columns and labels:
Human CARM1 (PRMT4) = molecular target: T1, Human CARM1 (PRMT4) (Homo sapiens, UniProt Q86X55); assay: CARM1 enzyme assay on peptide substrates (3H-SAM Flashplate); conditions: Biochemical assay; CARM1 0.25 nM, 3H-SAM 30 nM, peptide 250 nM; read-out: Biochem IC50
T1 construct: Flag-CARM1-His was eluted with 200 ug/ml FLAG peptide in buffer A; made in house; host or cells: HEK 293F cells infected with recombinant baculovirus (pFastBacMam)
T1 sequence (Q86X55 1-585 isoform Q86X55-1): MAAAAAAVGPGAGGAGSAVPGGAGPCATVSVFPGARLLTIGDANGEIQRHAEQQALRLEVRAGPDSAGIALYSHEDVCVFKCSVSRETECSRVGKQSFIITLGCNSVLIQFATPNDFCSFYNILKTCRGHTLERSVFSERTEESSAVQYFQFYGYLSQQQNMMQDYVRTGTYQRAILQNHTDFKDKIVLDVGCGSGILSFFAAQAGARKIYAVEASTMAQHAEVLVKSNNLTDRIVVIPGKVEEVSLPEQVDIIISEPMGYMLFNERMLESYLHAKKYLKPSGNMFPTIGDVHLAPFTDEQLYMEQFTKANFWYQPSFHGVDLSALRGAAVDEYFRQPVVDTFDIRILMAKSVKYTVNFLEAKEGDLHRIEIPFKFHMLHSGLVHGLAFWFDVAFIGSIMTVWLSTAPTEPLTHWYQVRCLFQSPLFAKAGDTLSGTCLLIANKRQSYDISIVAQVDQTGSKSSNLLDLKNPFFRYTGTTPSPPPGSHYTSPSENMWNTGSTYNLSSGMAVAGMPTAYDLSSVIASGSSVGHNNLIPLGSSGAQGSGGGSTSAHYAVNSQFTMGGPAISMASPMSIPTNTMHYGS

[1] = test system: asymmetric di-methyl PABP1 in RKO cells; assay: RKO methylation assay: In Cell Western (ICW) for asymmetric di-methyl PABP1 (PABP1me2a); conditions: Homo sapiens, RKO, 48 h, Cellular-based (PABP1me2a) ICW (In Cell Western) assay
Summary of the method: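 In-cell western on compound-exposed RKO cells (48 hours): asymmetric di-methyl PABP1 detected by antibody at 800 nm, DNA content by DRAQ5 at 700 nm. Percent inhibition from signal ratios against DMSO (minimum) and 20 μM reference compound (maximum) wells; IC50 curves fitted from triplicates.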

| IC50 (Human CARM1 (PRMT4)) [nM] | IC50 [1] [nM] | SMILES |
| --- | --- | --- |
| 4.1 | 398 | CNC[C@@H](O)COc1ccc(Cl)c(-c2nc(-c3c(C)noc3C)c(C)c(N3CC(C)(C#N)C3)n2)c1 [Example 240] |
| 2 | 27 | CNC[C@@H](O)COc1ccc(Cl)c(-c2nc(-c3c(C)noc3C)c(C)c(N3Cc4ccc(OCCOC)nc4C3)n2)c1 [Example 249] |
| 1.7 | 75 | CNC[C@@H](O)COc1ccc(Cl)c(-c2nc(-c3c(C)noc3C)c(C)c(N3CC4=C(C3)CN(C3CC3)C4)n2)c1 [Example 211] |
| 2.4 | 22.7 | CNC[C@@H](O)COc1ccc(Cl)c(-c2nc(-c3c(C)noc3C)c(C)c(N3CC4=C(CN(C(=O)OC)CC4)C3)n2)c1 [Example 257] |
| 3.7 | 165 | CCn1ncc(C)c1-c1nc(-c2cc(OC[C@H](O)CNC)ccc2Cl)nc(N2Cc3cccnc3C2)c1C [Example 89] |
| 2.53 | 43.4 | CNC[C@@H](O)COc1ccc(Cl)c(-c2nc(-c3c(Cl)cnn3C)c(C)c(N3CC4=C(CN(C(=O)OC)CC4)C3)n2)c1 [Example 334] |
| 7 | 166 | CNC[C@@H](O)COc1ccc(Cl)c(-c2nc(-c3c(C)noc3C)c(C)c(N3C[C@H]4CN(CC(F)F)C[C@H]4C3)n2)c1 [Example 30] |
| 4.17 | 282 | CNC[C@@H](O)COc1ccc(Cl)c(-c2nc(-c3c(C)noc3C)c(C)c(N3CC(C#N)(COC)C3)n2)c1 [Example 286] |
| 6.1 | 422 | CNC[C@@H](O)COc1ccc(Cl)c(-c2nc(-c3c(C)noc3C)c(C)c(N3Cc4cc(=O)n(C(C)C)cc4C3)n2)c1 [Example 73] |
| 3.8 | 113 | CNC[C@@H](O)COc1ccc(F)c(-c2nc(-c3c(C)noc3C)c(C)c(N3CC4(CCC(F)CC4)C3)n2)c1 [Example 56] |
| 2.2 | 32 | CNC[C@@H](O)COc1ccc(Cl)c(-c2nc(-c3c(C)noc3C)c(C)c(N3Cc4nc(OC)nc(OC)c4C3)n2)c1 [Example 90] |
| 1.5 | 74 | CCc1onc(C)c1-c1nc(-c2cc(OC[C@H](O)CNC)ccc2Cl)nc(N2Cc3cccnc3C2)c1C [Example 207] |
| 4.1 | 80.9 | CNC[C@@H](O)COc1ccc(Cl)c(-c2nc(-c3c(C)c(Cl)nn3C)c(C)c(N3CC4(CC(C#N)C4)C3)n2)c1 [Example 332] |
| 1.2 | 22 | CNC[C@@H](O)COc1ccc(Cl)c(-c2nc(-c3c(C)noc3C)c(C)c(N3Cc4ccc(C)nc4C3)n2)c1 [Example 69] |
| 1.8 | 459 | CNC[C@@H](O)COc1ccc(Cl)c(-c2nc(-c3c(C)noc3C)c(C)c(N3Cc4cnc(N5CCOC5=O)nc4C3)n2)c1 [Example 181] |
| 9 | 428 | CNC[C@@H](O)COc1ccc(Cl)c(-c2nc(-c3cnn(CC(F)(F)F)c3)c(C)c(-c3c(C)noc3C)n2)c1 [Example 118] |
| 4.6 | 200 | CC[C@@H]1CN(c2nc(-c3cc(OC[C@H](O)CNC)ccc3Cl)nc(-c3c(C)noc3C)c2C)CCN1CC(F)F [Example 203] |
| 9.9 | 9130 | CNC[C@@H](O)COc1ccc(Cl)c(-c2nc(-c3c(C)noc3C)c(C)c(N3Cc4cnn(C(CO)CO)c4C3)n2)c1 [Example 115] |
| 1.5 | 17 | CNC[C@@H](O)COc1ccc(Cl)c(-c2nc(-c3c(C)noc3C)c(C)c(N3Cc4ccc(N5CCC5)nc4C3)n2)c1 [Example 221] |
| 120 | 1820 | Cc1noc(C)c1-c1nc(-c2cc(OC[C@H](O)CN(C)C=O)ccc2Cl)nc(N2Cc3cccnc3C2)c1C [Example 308] |
| 7.8 | 234 | CNC[C@@H](O)COc1ccc(Cl)c(-c2nc(-c3c(C)noc3C)c(C)c(N3C[C@]4(C)CN(C(=O)OC)C[C@]4(C)C3)n2)c1 [Example 65] |
| 1.4 | 73 | CNC[C@@H](O)COc1ccc(Cl)c(-c2nc(-c3c(Cl)cnn3C)c(C)c(N3Cc4cccnc4C3)n2)c1 [Example 58] |
| 6.83 | 310 | CNC[C@@H](O)COc1ccc(Cl)c(-c2nc(-c3c(Br)cnn3C)c(C)c(N3CC4(CN(C(=O)OC)C4)C3)n2)c1 [Example 266] |
| 10.4 | 406 | CNC[C@@H](O)COc1ccc(Cl)c(-c2nc(-c3c(C)noc3C)c(C)c(N3CC4(C3)CN(S(C)(=O)=O)C4)n2)c1 [Example 42] |

| IC50 (Human CARM1 (PRMT4)) [nM] | IC50 [1] [nM] | SMILES |
| --- | --- | --- |
| 2.34 | 32.6 | CNC[C@@H](O)COc1ccc(Cl)c(-c2nc(-c3c(C)noc3C)c(C)c(N3Cc4cccnc4C3)n2)c1 [Example 262] |
| 2.36 | 29.2 | CNC[C@@H](O)COc1ccc(Cl)c(-c2nc(-c3c(C)noc3C)c(C)c(N3Cc4ccc(O[C@@H]5CCOC5)nc4C3)n2)c1 [Example 253] |
| 3.3 | 22 | CNC[C@@H](O)COc1ccc(Cl)c(-c2nc(-c3c(C)noc3C)c(C)c(N3Cc4cnc(N5CCOCC5)nc4C3)n2)c1 [Example 144] |
| 4.7 | 58 | CNC[C@@H](O)COc1ccc(Cl)c(-c2nc(-c3c(C)c(Cl)nn3C)c(C)c(N3CC4(CCN(C(=O)OC)CC4)C3)n2)c1 [Example 192] |
| 3.2 | 19 | CNC[C@@H](O)COc1ccc(Cl)c(-c2nc(-c3c(C)noc3C)c(C)c(N3Cc4cnc(OC)nc4C3)n2)c1 [Example 70] |
| 5.1 | 120 | CNC[C@@H](O)COc1ccc(Cl)c(-c2nc(-c3c(C)noc3C)c(C)c(N3Cc4c(n(C)c(=O)n(C)c4=O)C3C)n2)c1 (stereo partly shown) [Example 34] |
| 7.8 | 32 | CNC[C@@H](O)COc1ccc(Cl)c(-c2nc(-c3c(C)noc3C)c(C)c(N3Cc4cnc(OCC(F)F)nc4C3)n2)c1 [Example 127] |
| 7.6 | 340 | CNC[C@@H](O)COc1ccc(Cl)c(-c2nc(-c3cnn(CC(F)F)c3)c(C)c(-c3c(C)noc3C)n2)c1 [Example 119] |
| 5.8 | 174 | CCc1onc(C)c1-c1nc(-c2cc(OC[C@H](O)CNC)ccc2Cl)nc(N2CC3(CC(OC)C3)C2)c1C [Example 171] |
| 3.1 | 57 | CNC[C@@H](O)COc1ccc(Cl)c(-c2nc(-c3c(C)noc3C)c(C)c(N3Cc4ncnc(OCC(F)F)c4C3)n2)c1 [Example 154] |
| 5.6 | 452 | CNC[C@@H](O)COc1ccc(Cl)c(-c2nc(-c3c(C)noc3C)c(C)c(N3CCC4(C3)OCCO4)n2)c1 [Example 25] |
| 6.9 | 550 | CNC[C@@H](O)COc1ccc(Cl)c(-c2nc(-c3c(C)noc3C)c(C)c(N3CC4(CC(C(=O)N5CC(OC)C5)C4)C3)n2)c1 [Example 162] |
| 2.1 | 120 | CNC[C@@H](O)COc1ccc(Cl)c(-c2nc(-c3c(C)noc3C)c(C)c(N3Cc4nc(C5CC5)oc4C3)n2)c1 [Example 210] |
| 3.9 | 144 | CNC[C@@H](O)COc1ccc(Cl)c(-c2nc(-c3c(C)noc3C)c(C)c(N3CC4(CC=C(F)CC4)C3)n2)c1 [Example 68] |
| 4.8 | 52 | CNC[C@@H](O)COc1ccc(Cl)c(-c2nc(-c3c(C)noc3C)c(C)c(N3Cc4cnn(CCOC)c4C3)n2)c1 [Example 110] |
| 3.2 | 11 | CNC[C@@H](O)COc1ccc(Cl)c(-c2nc(-c3c(C)noc3C)c(C)c(N3Cc4cnc(N5CCC5)nc4C3)n2)c1 [Example 105] |
| 1.8 | 31 | CNC[C@@H](O)COc1ccc(Cl)c(-c2nc(-c3c(C)noc3C)c(C)c(N3Cc4cnc(N(C)C)cc4C3)n2)c1 [Example 183] |
| 1.4 | 2150 | CNC[C@@H](O)COc1ccc(Cl)c(-c2nc(-c3c(C)noc3C)c(C)c(N3C[C@H]4CN(C(=O)C(F)(F)F)C[C@H]4C3)n2)c1 [Example 31] |
| 5 | 71 | CNC[C@@H](O)COc1ccc(Cl)c(-c2nc(-c3c(C)noc3C)c(C)c(N3CC4(CCC(F)(F)CC4)C3)n2)c1 [Example 67] |
| 2.54 | 65.4 | CNC[C@@H](O)COc1ccc(Cl)c(-c2nc(-c3c(Cl)cnn3C)c(C)c(N3Cc4cnc(OC)nc4C3)n2)c1 [Example 339] |
| 5.66 | 262 | CNC[C@@H](O)COc1ccc(Cl)c(-c2nc(-c3c(C)c(C#N)nn3C)c(C)c(N3CC4(CCN(C(=O)OC)CC4)C3)n2)c1 [Example 345] |
| 5 | 116 | CNC[C@@H](O)COc1ccc(Cl)c(-c2nc(-c3c(C)c(Br)nn3C)c(C)c(N3CC4(CC(OC(F)(F)F)C4)C3)n2)c1 [Example 238] |
| 5.4 | 696 | CC[C@H]1CN(c2nc(-c3cc(OC[C@H](O)CNC)ccc3Cl)nc(-c3c(C)noc3C)c2C)CCN1C(=O)OC [Example 206] |
